Source: PubChem BioAssay (NCI)
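Following 48 hours of exposure in 96-well plates, responses at five concentrations were used to interpolate endpoints linearly. Here, GI50 denotes the concentration required for 50% inhibition of growth. TGI is the concentration that stops growth completely.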

What was measured:
Assay in all cases: growth of human tumour cells (NCI), 48 h
[1] = test system: PC-3 prostate
[2] = test system: EKVX NSCLC
[3] = test system: RXF 393 renal
[4] = test system: NCI-H226 lung
[5] = test system: UACC-257 melanoma
[6] = test system: HCT-116 colon
[7] = test system: K-562 leukemia
[8] = test system: SNB-19 CNS
[9] = test system: SF-268 CNS
[10] = test system: SK-MEL-28 melanoma

| Structure (SMILES) | TGI [1] [µM] | TGI [2] [µM] | TGI [3] [µM] | TGI [4] [µM] | TGI [5] [µM] | TGI [6] [µM] | TGI [7] [µM] | TGI [8] [µM] | TGI [9] [µM] | TGI [10] [µM] | GI50 [4] [µM] | GI50 [6] [µM] | GI50 [7] [µM] | GI50 [8] [µM] |
| --- | --- | --- | --- | --- | --- | --- | --- | --- | --- | --- | --- | --- | --- | --- |
| O=C(O)/C=C/c1ccc2c(c1)CC1(Cc3ccccc3C1)C2 | > 100 | > 100 | > 100 | 99.4 | > 100 | 51.4 | > 100 | – | – | – | – | – | – | – |
| CC1=C(C)CC2(C=C(C(C)(C)C)C(=O)C(C(C)(C)C)=C2)SC1 | 73.8 | 36.9 | 38.7 | 34.4 | > 100 | > 100 | > 100 | 31.5 | 46.6 | – | – | – | – | – |
| CN(CCc1ccccn1)C(=S)N/N=C(\c1ccccc1)c1ccccn1 | 6.67 | 2 | 2.83 | – | 1.94 | 2.02 | > 100 | 9.07 | – | 6.01 | – | – | – | – |
| O=C(NO)NCCCl | > 100 | > 100 | > 100 | > 100 | > 100 | > 100 | > 100 | > 100 | > 100 | – | – | – | – | – |
| CC12CCC(CC1)C(C)(C)O2 | – | 104 | 56.9 | 42.4 | 73.7 | 81.3 | 183 | 103 | 119 | 131 | 6.25 | 12.6 | 37.9 | 20.8 |
| Clc1ccc(C[P+](c2ccccc2)(c2ccccc2)c2ccccc2)cc1Cl | – | – | – | 13.1 | 8.32 | 10.8 | > 100 | 10.6 | 11.3 | 11.4 | – | – | – | – |
| C=C1C(=O)O[C@H]2C[C@@H]1[C@@H](O)[C@H](O)[C@@H](C)CCCC(C)=CCC[C@@]2(C)O | 43.9 | > 100 | 74.1 | – | 36.4 | 51.8 | > 100 | > 100 | 73 | 77.7 | – | – | – | – |
| C=C1C(=O)OC2CC(C)C3C4OC4C(O)C3(C)C(O)C12 (stereo not drawn) | – | 63.9 | 53.7 | > 68 | 104 | 55.6 | 91.6 | 102 | 71.7 | 71.2 | – | – | – | – |
| NCCN1C(=O)c2ccccc2C1c1ccc(Cl)cc1 (stereo not drawn) | > 100 | > 100 | > 100 | – | > 100 | > 100 | > 100 | > 100 | > 100 | > 100 | – | – | – | – |
| CC(C)C1=CC(=O)[C@@](C)(C2[C@H](O)C[C@@]3(C)[C@@H]4CC=C5[C@@H](CC[C@@H](OC6OCC(O)C(O)C6OC6OC(C)C(O)C(O)C6O)C5(C)C)[C@]4(C)C(=O)C[C@]23C)O1 (stereo partly drawn) | > 100 | > 100 | > 100 | > 100 | – | > 100 | > 100 | > 100 | > 100 | > 100 | – | – | – | – |
| COc1cc(-c2c3c(cc4c2OCO4)[C@@H](Nc2ccc(-c4ccc(-c5ccc(N[C@@H]6c7cc8c(cc7C(c7cc(OC)c(O)c(OC)c7)[C@H]7C(=O)OC[C@H]67)OCO8)cc5)cc4)cc2)[C@H]2COC(=O)[C@@H]2C3)cc(OC)c1O (stereo partly drawn) | 8.37 | 25.2 | – | 6.31 | 80.4 | 3.19 | – | 12.5 | 10.9 | 15.7 | – | – | – | – |
| COC1C(N(C)C)=C(c2ccccc2)C(=O)N2CCc3ccccc3C12 (stereo not drawn) | > 100 | > 100 | > 100 | > 100 | > 100 | > 100 | – | > 100 | > 100 | > 100 | – | – | – | – |
| O=c1[nH]c(NCc2ccc(Cl)cc2)nc2nc[nH]c12 | > 100 | > 100 | > 100 | > 100 | > 100 | > 100 | > 100 | > 100 | > 100 | – | – | – | – | – |
| C/C(N=NS(=O)(=O)c1ccc([N+](=O)[O-])cc1)=C1\C=CC=CN1O | – | > 100 | – | – | > 100 | > 100 | > 100 | > 100 | > 100 | > 100 | – | – | – | – |
| CC(C)(NC(=O)OCc1ccccc1)C(=O)OC(=O)C(C)(C)NC(=O)OCc1ccccc1 | > 100 | > 100 | – | > 100 | – | > 100 | > 100 | > 100 | – | > 100 | – | – | – | – |
| CCc1c(-c2ccc(OC)cc2)oc(OC)c(C)c1=O | > 100 | > 100 | > 100 | – | > 100 | > 100 | > 100 | > 100 | > 100 | > 100 | – | – | – | – |
